Source: the supplement of paper PMC5908809

Legend:
[1] = system: normal NK cells expanded with K562-aAPC; experiment: percent inhibition of viability; higher = more inhibition; conditions: 72 h, IL-2 2.5 ng/mL
Method: (§1)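 Drug sensitivity and resistance testing on K562-aAPC-expanded normal NK cells: 5 concentrations (10-fold steps over a 10,000-fold range), 72 h at 37 °C, viability by CellTiter-Glo normalised to DMSO and benzethonium chloride controls; DSS from the fitted curve.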

[2] = system: DERL-7 (IL-2 2.5 ng/mL); experiment: as above; conditions: 72 h
[3] = system: IMC-1 (IL-2 20 ng/mL); experiment: as above; conditions: 72 h
[4] = system: KAI3 (IL-2 2.5 ng/mL); experiment: as above; conditions: 72 h
[5] = system: KHYG-1 (IL-2 2.5 ng/mL); experiment: as above; conditions: 72 h
[6] = system: NK-92 (IL-2 2.5 ng/mL); experiment: as above; conditions: 72 h
[7] = system: NK-YS (IL-2 2.5 ng/mL); experiment: as above; conditions: 72 h
[8] = system: NKL (IL-2 2.5 ng/mL); experiment: as above; conditions: 72 h
[9] = system: SNK-6 (IL-2 2.5 ng/mL); experiment: as above; conditions: 72 h
[10] = system: YT (IL-2 2.5 ng/mL); experiment: as above; conditions: 72 h
[11] = system: normal primary NK cells, pool 1 (3 donors) (IL-2 2.5 ng/mL); experiment: as above; conditions: 72 h
[12] = system: normal primary NK cells, pool 1 (3 donors), resting (IL-2 0 ng/mL); experiment: as above; conditions: 72 h
[13] = system: normal primary NK cells, pool 2 (3 donors) (IL-2 2.5 ng/mL); experiment: as above; conditions: 72 h
[14] = system: normal primary NK cells, pool 3 (3 donors) (IL-2 2.5 ng/mL); experiment: as above; conditions: 72 h
[15] = system: normal NK cells expanded with K562-aAPC; experiment: drug sensitivity score (DSS) (DSS units); higher = more sensitive; extreme values may be limits of the assay; conditions: 72 h; IL-2 2.5 ng/mL
Method: as §1

[16] = system: DERL-7 (IL-2 2.5 ng/mL); experiment: as above; conditions: 72 h
[17] = system: IMC-1 (IL-2 20 ng/mL); experiment: as above; conditions: 72 h
[18] = system: KAI3 (IL-2 2.5 ng/mL); experiment: as above; conditions: 72 h
[19] = system: KHYG-1 (IL-2 2.5 ng/mL); experiment: as above; conditions: 72 h
[20] = system: NK-92 (IL-2 2.5 ng/mL); experiment: as above; conditions: 72 h
[21] = system: NK-YS (IL-2 2.5 ng/mL); experiment: as above; conditions: 72 h
[22] = system: NKL (IL-2 2.5 ng/mL); experiment: as above; conditions: 72 h
[23] = system: SNK-6 (IL-2 2.5 ng/mL); experiment: as above; conditions: 72 h
[24] = system: YT (IL-2 2.5 ng/mL); experiment: as above; conditions: 72 h
[25] = system: normal primary NK cells, pool 1 (3 donors) (IL-2 2.5 ng/mL); experiment: as above; conditions: 72 h
[26] = system: normal primary NK cells, pool 1 (3 donors), resting (IL-2 0 ng/mL); experiment: as above; conditions: 72 h
[27] = system: normal primary NK cells, pool 2 (3 donors) (IL-2 2.5 ng/mL); experiment: as above; conditions: 72 h
[28] = system: normal primary NK cells, pool 3 (3 donors) (IL-2 2.5 ng/mL); experiment: as above; conditions: 72 h

Cn1cnc2c(F)c(Nc3ccc(Br)cc3Cl)c(C(=O)NOCCO)cc21 [Selumetinib] (max concentration tested 10000 nM)
percent inhibition of viability [%]
Conditions | 1 nM | 10 nM | 100 nM | 1000 nM | 10000 nM
[1] | -5.33 | -3.66 | -3.4 | -0.06 | 16.8
[2] | -4.06 | 8.89 | 24.4 | 38.2 | 51.5
[3] | -12.4 | -11.4 | -5.26 | -4.59 | 17.3
[4] | 6.76 | 0.73 | 4.04 | 12.1 | 29.3
[5] | 1.06 | -1.54 | 13.7 | 34.2 | 61.1
[6] | 2.8 | 1.89 | -10.2 | -8.53 | 36.1
[7] | 5.92 | -5.87 | 0.1 | 1.88 | 27.9
[8] | -4.4 | -0.32 | 26.8 | 39 | 72.7
[9] | -18.1 | -10.6 | -25.8 | -31.2 | -26.9
[10] | 2.15 | -4.23 | -5.27 | -0.32 | 16.7
[11] | -4.68 | -3.55 | 18.9 | 23.4 | 19.1
[12] | -1.79 | -0.33 | 21.2 | 18.2 | 16.7
[13] | -9.3 | -7.88 | 3.43 | 19.3 | 18.2
[14] | -5.55 | -8.58 | -1.51 | -0.3 | 13.4

Conditions | drug sensitivity score
[15] | 0.36
[16] | 10.2
[17] | 0.24
[18] | 2.27
[19] | 7.98
[20] | 1.3
[21] | 1.42
[22] | 10.8
[23] | 0
[24] | 0.33
[25] | 5.53
[26] | 5.28
[27] | 2.98
[28] | 0.11

O=C(c1ccc(F)c(F)c1Nc1ccc(I)cc1F)N1CC(O)([C@@H]2CCCCN2)C1 [Cobimetinib] (max concentration tested 1000 nM)
percent inhibition of viability [%]
Conditions | 0.1 nM | 1 nM | 10 nM | 100 nM | 1000 nM
[1] | -7.24 | -7.72 | -6.49 | 1.17 | 21.4
[2] | -2.43 | 3.83 | 18.1 | 32.9 | 46.5
[3] | -6.91 | -4.02 | -2.84 | -2.89 | 11.3
[4] | 9.38 | 9.29 | 9.13 | 11.7 | 32.1
[5] | 0.28 | -3.46 | 0.44 | 23.2 | 61.9
[6] | -10.5 | -14.3 | -27.4 | -34.9 | 9.96
[7] | -1.72 | -3.33 | -3.31 | 6.41 | 24.2
[8] | -12.4 | -11.4 | 17.8 | 45 | 73.1
[9] | -10.3 | -0.09 | -17.7 | -8.92 | -10.9
[10] | 0.33 | -2.92 | -2.04 | -0.43 | 15.7
[11] | -3.52 | 2.49 | 17.3 | 18.4 | 24
[12] | 7.7 | 3.18 | 22 | 14 | 16.4
[13] | -3.62 | -9.92 | 3.68 | 12.4 | 19.9
[14] | -9.25 | -10.3 | -2.76 | -1.62 | 12.1

Conditions | drug sensitivity score
[15] | 0.83
[16] | 7.96
[17] | 0
[18] | 3.21
[19] | 6.6
[20] | 0
[21] | 1.78
[22] | 10.4
[23] | 0
[24] | 0.26
[25] | 5.11
[26] | 2.92
[27] | 1.58
[28] | 0.02

Nc1ncnc2c1nc(N)n2[C@@H]1O[C@H](CO)[C@@H](O)[C@H]1O [8-amino-adenosine] (max concentration tested 50000 nM)
percent inhibition of viability [%]
Conditions | 5 nM | 50 nM | 500 nM | 5000 nM | 50000 nM
[1] | -1.82 | 3.86 | 28.5 | 101 | 101
[2] | -0.37 | -2.93 | 51.5 | 101 | 101
[3] | -2.9 | -0.37 | 12.2 | 101 | 101
[4] | -12.9 | -1.89 | 75.4 | 104 | 106
[5] | -1.34 | -2.24 | 21.2 | 105 | 109
[6] | -19.1 | -2.94 | 59.2 | 106 | 109
[7] | -5.77 | -1.64 | 26 | 102 | 108
[8] | -18.8 | 6.72 | 63 | 107 | 109
[9] | 24.4 | 39.9 | 75.8 | 99 | 101
[10] | -0.2 | 1.01 | 20.2 | 102 | 110
[11] | 2.12 | -9.21 | 1.92 | 26.5 | 81.2
[12] | -6.09 | -20.9 | -6.28 | 5.09 | 75.2
[13] | -14.7 | -1.95 | 0.14 | 36.1 | 88.7
[14] | -13.3 | -8.61 | 10.2 | 31 | 84.2

Conditions | drug sensitivity score
[15] | 22.2
[16] | 24.3
[17] | 20.1
[18] | 26.6
[19] | 21.4
[20] | 25
[21] | 22
[22] | 25.6
[23] | 32.5
[24] | 21.3
[25] | 8.3
[26] | 4.92
[27] | 9.73
[28] | 8.22

C=CC(=O)Nc1cc2c(Nc3ccc(F)c(Cl)c3)ncnc2cc1OCCCN1CCOCC1 [Canertinib] (max concentration tested 10000 nM)
percent inhibition of viability [%]
Conditions | 1 nM | 10 nM | 100 nM | 1000 nM | 10000 nM
[1] | -1.69 | -1.95 | -1.57 | 28.3 | 100
[2] | -1.22 | 3.31 | 7.19 | 46.1 | 101
[3] | -13.9 | -4.18 | -9.88 | -11.9 | 99.7
[4] | -7.79 | -2.37 | 3.26 | 43.7 | 104
[5] | -9.72 | -6.52 | -7.64 | 4.13 | 105
[6] | 3.42 | 2.68 | 6.81 | 39.8 | 104
[7] | -6.82 | -1.19 | -0.2 | 14.6 | 103
[8] | -12.1 | -11.6 | -5.5 | 34.5 | 106
[9] | -13 | -20.2 | -15.9 | 2.62 | 99.5
[10] | -5.49 | -3.57 | 3.25 | 14.8 | 103
[11] | -5.89 | 6.82 | 13.3 | 76.1 | 99.2
[12] | 2.65 | 15.7 | 18.4 | 74.2 | 97
[13] | -7.41 | -1.65 | 8.39 | 58.4 | 96.8
[14] | -4.75 | 1.46 | 0.7 | 34.3 | 99.2

Conditions | drug sensitivity score
[15] | 9.72
[16] | 10.9
[17] | 4.78
[18] | 11.2
[19] | 6.47
[20] | 10.8
[21] | 8.03
[22] | 10.3
[23] | 5.87
[24] | 8.07
[25] | 15.9
[26] | 16.2
[27] | 12.6
[28] | 10.3

COC(=O)C[C@](O)(CCCC(C)(C)O)C(=O)O[C@@H]1C(OC)=C[C@]23CCCN2CCc2cc4c(cc2[C@H]13)OCO4 [Omacetaxine] (max concentration tested 10000 nM)
percent inhibition of viability [%]
Conditions | 1 nM | 10 nM | 100 nM | 1000 nM | 10000 nM
[1] | 3.7 | 16 | 93.1 | 101 | 101
[2] | 5.07 | 60.5 | 100 | 101 | 101
[3] | -8.96 | -3.07 | 99.7 | 101 | 101
[4] | 29.6 | 46.7 | 101 | 105 | 106
[5] | -7.86 | -9.89 | 102 | 106 | 107
[6] | 1.68 | 7.27 | 100 | 106 | 108
[7] | 1.36 | 1.43 | 100 | 105 | 108
[8] | 3.97 | 2.74 | 99.8 | 107 | 108
[9] | 0.3 | 72.3 | 95.2 | 95.4 | 99.9
[10] | -7.92 | 19.8 | 98.2 | 107 | 108
[11] | 1.78 | 69 | 96.7 | 96.5 | 99
[12] | 39.6 | 89.8 | 90.3 | 89.8 | 91.4
[13] | 4.96 | 73.8 | 93.2 | 93.8 | 95.3
[14] | 9.72 | 46.5 | 96.3 | 97.1 | 99.5

Conditions | drug sensitivity score
[15] | 31.6
[16] | 37.8
[17] | 30.1
[18] | 37.1
[19] | 29.9
[20] | 31.6
[21] | 30.6
[22] | 30.8
[23] | 38.8
[24] | 33.7
[25] | 38.4
[26] | 43.6
[27] | 38.4
[28] | 35.4
